According to patent US7259171B2, “Di and trifluoro-triazolo-pyridines anti-inflammatory compounds” (Pfizer Inc., priority 2002, dated 2007):

A melting point of 175.7 to 176.2 °C was found for CC(C)c1nnc2ccc(-c3ocnc3-c3c(F)cccc3F)cn12 [Example 1, 6-[4-(2,6-Difluoro-phenyl)-oxazol-5-yl]-3-isopropyl-[1,2,4]triazolo[4,3-a]pyridine] in this work.
